Measured values reported in patent US20020197261A1, “Therapeutic agent/ligand conjugate compositions, their methods of synthesis and use” (priority 2001, published 2002).

Tested on: A431 cells
Experiment: MTT cytotoxicity, 6-hour pretreatment system
Format: cell-based
Details: Homo sapiens, A-431, read-out: IC50 (50% growth inhibition), 6 hours exposure, washing, additional 72 hours incubation
Experimental: One hundred microliter of growth medium suspending 1000-2000 cells per well was plated out in 96-well plates and incubated for 2 days to allow the cells to attach. Various dilutions of the drug or conjugates were added to each well and the plates were incubated for 72 hours at 37° C. Alternatively, a 6-hour pretreatment protocol was used. Cells were exposed to various concentrations of the drug or conjugate for 6 hours at 37 ° C., and then washed twice with the fresh culture medium. The cells were incubated for additional 72 hours. At the end of the incubation period, twenty microliters of MTT solution from Promega Cell Proliferation Assay kit (Madison, Wis.) were added to the wells. The microplates were then incubated for 1 hour at 37° C. Absorbance was measured at 490 nm using a microplate reader (Molecular Devices Corp, Sunnyvale, Calif.). The data reported represent the means of quadruplicate measurement and the standard errors of the mean were less than 15%.

With `COc1cccc2c1C(=O)c1c(O)c3c(c(O)c1C2=O)C[C@@](O)(C(=O)CO)C[C@@H]3O[C@H]1C[C@H](N)[C@H](O)[C@H](C)O1` [Adr, Adriamycin] as the compound, how does the IC50 read?
The IC50 was 17.7 µM.
